The target in assay [1] is T1, Bcl-xL (residues 1-209, loop 45-86 deleted) (Homo sapiens, UniProt Q07817, DEL45-86).
T1 construct: Bcl-xL (residues 1-209, loop 45-86 deleted)
The experiment in a line: biochemical. The format is binding. The conditions noted are these: Table 3; 10 nM FITC-Bak, 4 nM Bcl-xL; top concentration 20 uM. Here is the method:
(§1) Bak Peptide Binding Assay
(§2) Compound affinity was measured using a fluorescence polarization anisotropy competition assay. Anisotropy measurements were carried out in 384-well, black, flat-bottom plates (Greiner Bio-one, Monroe, N.C., USA). The assay was run using a fluorescein isothiocyanate-labeled BH3 peptide derived from Bak (FITC-AHx-[…] […] H2) (SEQ ID NO: 1) that was purchased from GenScript (Piscataway, N.J.) at >95% purity and used without further purification. 10 nM FITC-Bak peptide and 14 nM recombinant Mcl-1 (residues 172-327) were added to assay buffer (3 mM dithiothreitol, 50 mM NaCl, 20 mM Tris, pH 7.5). For selectivity assays, 40 nM Bcl-2 (residues 1-207^A96T,G110R, Δ35-91, replaced with Bcl-xL35-50) or 4 nM Bcl-xL (residues 1-209, loop 45-86 deleted) were incubated with 10 nM FITC-Bak in assay buffer.
(§3) Compounds are diluted in DMSO in a 10-point, 3-fold serial dilution scheme. 2.5 uL compound is added to 47.5 uL of assay buffer containing FITC-Bak and protein, for a final DMSO concentration of 5% and a top concentration of 20 uM. […] The plate was mixed and incubated for 90 minutes at room temperature. Anisotropy is measured at excitation wavelength 480 nm and emission wavelength 535 nm using an EnVision Multi-label plate reader (PerkinElmer, Wellesley, Mass., USA). Fluorescence anisotropy is plotted against compound concentration to generate an IC50 (inhibitor concentration at which 50% of bound peptide is displaced) by fitting the data to a 4-parameter logistic model using XLFit software (Guildford, Surrey, UK). IC50 is converted to a binding dissociation constant (Ki value) according to the formula of Wang Z. FEBS Lett (1996) 3, 245: Ki=[I]50/([L]50/Kd+[P]0/Kd+1) where [I]50 is the concentration of the free inhibitor at 50% inhibition, [L]50 is the concentration of the free labeled ligand at 50% inhibition, [P]0 is the concentration of the free protein at 0% inhibition, Kd represents the dissociation constant of the FITC peptide probe.

The target in assay [2] is T2, recombinant Mcl-1 (residues 172-327) (Homo sapiens, UniProt Q07820).
T2 construct: 14 nM recombinant Mcl-1 (residues 172-327) were added to assay buffer
As to the kind of experiment: Bak peptide binding assay: fluorescence polarization anisotropy competition (FITC-Bak BH3 peptide). The following applies: 10 nM FITC-Bak, 14 nM Mcl-1, Ki converted from IC50. On the procedure:
as §1, §2, §3

The term pKi denotes the Ki on a negative log10 scale, so that one unit is a factor of ten.

pKi: −log10 of the molar value. Where two headings read alike, the source gives them in different places.

T2 sequence (Q07820 172-327): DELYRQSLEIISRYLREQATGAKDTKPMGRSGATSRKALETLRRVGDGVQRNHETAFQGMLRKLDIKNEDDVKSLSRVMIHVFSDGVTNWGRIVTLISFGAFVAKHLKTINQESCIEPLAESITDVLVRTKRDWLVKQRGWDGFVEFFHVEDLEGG
T1 sequence (Q07817 other isoform, or with tags, fused parts or gaps DEL45-86): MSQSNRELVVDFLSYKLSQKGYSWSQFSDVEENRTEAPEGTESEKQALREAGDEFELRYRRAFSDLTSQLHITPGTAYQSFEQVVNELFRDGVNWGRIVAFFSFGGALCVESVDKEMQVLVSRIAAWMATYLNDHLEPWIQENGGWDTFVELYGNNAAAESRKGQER

Consider `O=C(O)c1c(CCCOc2ccc(Cl)c3ccccc23)c2cccc3c2n1CCS3` [Example 10, 6-(3-((4-chloronaphthalen-1-yl)oxy)propyl)-2,3-dihydro-[1,4]thiazino[2,3,4-hi]indole-5-carboxylic acid], for which the pKi in assay [1] was 5.33; in assay [2] (Ki For Inhibition of Mcl-I Protein, Table 2, binned range), 6.52 to 7.00; in assay [2] (Table 3, read-out: Ki Mcl-1), 6.70.

(Values after US9949965B2, “Tricyclic indole Mcl-1 inhibitors and uses thereof” (priority 2014, dated 2018).)
